From patent US20230265435A1, “COMPOSITION COMPRISING OSTEOPONTIN INHIBITOR AS ACTIVE INGREDIENT FOR PREVENTION, ALLEVIATION, OR TREATMENT OF NEURODEGENERATIVE DISEASE” (THE CATHOLIC UNIVERSITY OF KOREA INDUSTRY-ACADEMIC …, priority 2020, published 2023)

Test system: neural stem cells
Assay: Amyloid beta toxicity, MTT assay, OPN antagonist treatment
Assay type: cell-based
Description: Next, to confirm the function of the OPN protein for amyloid beta neurotoxicity, the inventors confirmed the level of amyloid beta toxicity according to the treatment of an OPN antagonist or OPN siRNA using neuronal cells.
Specifically, approximately 5×10^4 neural stem cells were seeded in a 24-well plate, and cultured at 37° C. in a CO2 incubator for 24 hours. The medium in the cell-containing plate was replaced with an antibiotic-free, 0.1% serum-containing medium, treated with 0.5 μM levocetirizine (Sigma-Aldrich, L7795, OPN antagonist), and after 6 to 7 hours, the cells were further treated with 3 μM amyloid beta, and after 48 hours of culture, cell viability was confirmed through an MTT assay.

Substance	amyloid beta toxicity (0.5 μM levocetirizine with 3 μM amyloid beta, 48 hours)	cell viability (neural stem cells treated with 3 μM amyloid beta alone)
levocetirizine	greatly decreased	–
amyloid beta	–	approximately 60%
